Experimental data reported in patent US20040009921A1, “Methods and compositions for the treatment of cancer” (Allergan, Inc., priority 2002, published 2004).

Assays:
[1] = test system: β-galactosidase; experiment: Western blotting of β-galactosidase control (LacZ) in HEK293 cells; type: cell-based; conditions: HEK293 cotransfected with LacZ, 0.1 μM
Method: (A) Western blotting analysis of HEK293 cells transfected with a combination of expression vectors for LacZ (2 μg), V5-tagged β-catenin(4 μg), and Flag-tagged RXRα (2 μg) as indicated below the gels. […] RXRα protein was measured using an HRP-conjugated mouse monoclonal antibody against the Flag tag. […] Endogenous and overexpressed β-catenin were detected using a rabbit polyclonal antibody as indicated by “Total” whereas overexpressed β-catenin was analyzed using a mouse monoclonal antibody against the V5 tag. Endogenous and overexpressed RXRα were detected by a rabbit polyclonal antibody against RXRα, whereas overexpressed RXRα was determined by an HRP-conjugated mouse monoclonal antibody against the Flag tag. (D) Western blotting analysis of HEK293 cells transfected with a fixed amount of β-catenin (4 μg) plus an increasing amount of RXRα as indicated at the top.
HEK293 cells were seeded at a density of 2×10 per dish were seeded into 100-mm dishes and cultured overnight in DMEM containing 10% FBS. Cells were transfected with 1-4 μg of various cDNA or parental expression vectors (8 μg of DNA in total) using Lipofectamine®. […]
Total cell lysates were homogenized by passing through a QIAshredder® (Qiagen) and cleared from insoluble materials by centriftigation at 12,000 g. Protein concentration was determined using a Bradford total protein assay kit (Bio-Rad). […]

[2] = test system: β-catenin-mediated gene transactivation (TCF/LEF reporter Topflash); experiment: Topflash reporter gene assay in HEK293 cells and stable lines RBC, CAT; type: cell-based, human
Method: (§1) Cultured cells were transfected with 100 ng of reporter gene Topflash® together with expression vectors indicated under each graph. […] (A) Data from HEK293 cells co-transfected with wild type or mutant β-catenin (200 ng) and RXRα (20 ng). (B) CAT, a stable cell line that overexpresses β-catenin (left panel). RBC, a stable cell line that overexpresses both RXRα and β-catenin. (C) SW480, a colorectal cancer cell line, was transfected with 100 ng of Topflash®. The amount of RXRα cotransfected was indicated below the X axis. Reporter activity on the Y axis is expressed as either Luciferase Unit or percentage of activity in cells transfected with Topflash® alone.
For transfection of the HEK293 cell line, cells were seeded at a density of 50,000 cells per well in 24-well plates coated with poly-D-Lysine (Becton Dickinson). After 24 hours, the luciferase-based reporter plasmids and expression vectors were cotransfected into cells using Fugene according to the manufacturer's instruction (Roche Applied Science). To monitor the efficiency of transfection, either 15 ng of phRG-TK Renilla or 100 ng of CMX-LacZ DNA were cotransfected. […] Harvested cells were lysed, and luciferase activity was measured as previously described (de Wet, J. R., Wood, K. V., DeLuca, M., Helinski, D. R., Subramani, S. (1987) Mol. Cell. Biol. 7, 725-737). In cells transfected with the LacZ control gene, β-galactosidase activity was measured by standard colorimetric assays. Renilla reniformis […] activity was determined using the Dual-Luciferase Reporter 100 Assay System (Promega Corporation, 2800 Woods Hollow Road, Madison Wis. USA 53711). The experimental reporter gene activity was normalized against either β-galactosidase or Renilla GFP activity. Values represent the mean +/− SEM of quadruplicate determinations.
To investigate whether RXR and its ligands affect β-catenin-mediated gene transactivation, the APC-positive human HEK293 cells were transfected with the reporter gene Topflash®. This reporter gene contains multiple copies of responsive elements for the DNA-binding transcription activators, TCF/LEF, upstream of the basic luciferase reporter gene construct tk-Luc. The tk-Luc portion of he reporter plasmid consists of a minimal gene promoter from HSV tk gene and a coding sequence for luciferase. Transactivation of this reporter by TCF/LEF can be affected by endogenous as well as overexpressed β-catenin, which interacts with TCF/LEF as a co-activator.

[3] = test system: β-catenin-driven gene transcription in APC-negative colorectal cancer cell line SW480; experiment: Topflash reporter gene assay in SW480 cells; type: cell-based
Method: as §1
For transfection of the HEK293 cell line, cells were seeded at a density of 50,000 cells per well in 24-well plates coated with poly-D-Lysine (Becton Dickinson). […] Harvested cells were lysed, and luciferase activity was measured as previously described (de Wet, J. R., Wood, K. V., DeLuca, M., Helinski, D. R., Subramani, S. (1987) Mol. Cell. Biol. 7, 725-737). In cells transfected with the LacZ control gene, β-galactosidase activity was measured by standard colorimetric assays. Renilla reniformis […] activity was determined using the Dual-Luciferase Reporter 100 Assay System (Promega Corporation, 2800 Woods Hollow Road, Madison Wis. USA 53711). […]

[4] = test system: β-catenin; experiment: Western blotting of β-catenin in CV-1 and Hela cells; type: cell-based; conditions: CV1 and Hela cells, 0.1 μM, 17 hours

CC(/C=C/[C@@H]1C[C@]1(C)c1ccc2c(c1)C(C)(C)CCC2(C)C)=C\C(=O)O [AGN 4204]
expression of β-galactosidase protein from LacZ control [1]: not significantly affected
Topflash reporter activity from endogenous β-catenin ([2]; HEK293, endogenous β-catenin, 0.1 μM, 17 hours): moderately reduced
ΔNβ-catenin mutant activity in transactivating Topflash ([2]; HEK293, ΔNβ-catenin in the presence of RXRα): significantly impaired
decrease in reporter activity ([2]; HEK293 cotransfected with β-catenin and RXRα, 0.1 μM, 17 hours): 90%
decrease in reporter activity ([2]; stable line CAT overexpressing only β-catenin, 0.1 μM, 17 hours): 30%
decrease in reporter activity ([2]; stable line RBC expressing β-catenin and RXRα, 0.1 μM, 17 hours): decrease in the reporter activity was also observed
reporter gene activity ([3]; SW480, low levels of endogenous RXRs only): not sufficient to produce an effect
reporter gene activity ([3]; SW480 cotransfected with RXRα, 0.1 μM, 17 hours): a decrease in reporter gene activity
degradation of ΔNβ-catenin protein [4]: susceptible to RXR-mediated degradation
